This passage reports TGI results from PubChem BioAssay (NCI).

SMILES strings stand for the structures.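 All cell lines were grown in 96-well plates and treated with compound for 48 hours. TGI: concentration producing complete growth inhibition.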 Bounds are passed on as bounds.

Some test systems named below: 786-0 renal; A549 NSCLC; COLO 205 colon; HCT-116 colon; HS 578T breast; NCI-H460 lung; SF-295 CNS; U251 CNS; UACC-62 melanoma; UO-31 renal.
Experiment in all cases: DTP human tumour cell line panel, 48 h

The term TGI denotes the concentration giving total growth inhibition. A high value points to lower sensitivity of the cells. For the compound `C=C(CCC(C(=O)O)C1CCC2(C)C3=C(CCC12C)C1(C)CCC(O)C(C)(C)C1CC3)C(C)C` (configuration not stated), the TGI with 786-0 renal is more than 100 µM; with A549 NSCLC, more than 100 µM; in the test with COLO 205 colon, more than 100 µM; in the test with HCT-116 colon, more than 100 µM; in the test on HS 578T breast, more than 100 µM; in the test with NCI-H460 lung, 37.5 µM. For the same compound, the TGI in the test with SF-295 CNS was more than 100 µM; in the test on U251 CNS, 72.8 µM; in the test with UACC-62 melanoma it was more than 100 µM; in the test with UO-31 renal, more than 100 µM.

As to `COc1ccc(C[C@H]2COC(=O)[C@@H]2Cc2cc(OC)c(OC)c(OC)c2)cc1OC`, the TGI with 786-0 renal, in the test on A549 NSCLC, in the test on COLO 205 colon, in the test with HCT-116 colon, in the test on HS 578T breast and with NCI-H460 lung was more than 100 µM throughout. For the same compound, the TGI in the test on SF-295 CNS, with U251 CNS, with UACC-62 melanoma and in the test with UO-31 renal was more than 100 µM throughout.

With `CCOC(=O)C(Cc1c(-c2[nH]c3ccccc3c2CC(NC(=O)CNC(C)=O)C(=O)OCC)[nH]c2ccccc12)NC(=O)CNC(C)=O` (configuration not stated), the TGI in the test with A549 NSCLC is more than 100 µM; in the test with COLO 205 colon, 35.4 µM; in the test on HCT-116 colon, more than 100 µM; in the test with HS 578T breast it was more than 100 µM; in the test on NCI-H460 lung it was more than 100 µM; with SF-295 CNS it was more than 100 µM. The TGI in the test on U251 CNS, in the test on UACC-62 melanoma and in the test with UO-31 renal was more than 100 µM each time.

Consider `Clc1ncc(C(Cl)(Cl)Cl)nc1-c1ccccc1`, for which the TGI with 786-0 renal turned out to be 5.77 µM; with A549 NSCLC, 22.5 µM; with COLO 205 colon, 4.11 µM; in the test on HCT-116 colon, 3.52 µM; in the test on HS 578T breast, 6.95 µM; in the test with NCI-H460 lung, 11.3 µM. For the same compound, the TGI in the test on SF-295 CNS turned out to be 13.5 µM; with U251 CNS, 3.3 µM; in the test on UACC-62 melanoma it was 7.27 µM; with UO-31 renal it was 3.34 µM.

On to `Cn1c(=O)c2[nH]c(N/N=C3/SCC(=O)N3Cc3ccccc3)nc2n(C)c1=O`, for which the TGI with 786-0 renal is 88.4 µM; in the test with A549 NSCLC it was more than 100 µM; with COLO 205 colon, more than 100 µM; in the test on HCT-116 colon, more than 100 µM; in the test with HS 578T breast it was more than 100 µM; with NCI-H460 lung, more than 100 µM. Moreover, the total growth inhibition concentration (TGI) in the test with SF-295 CNS, with U251 CNS, with UACC-62 melanoma and in the test on UO-31 renal was more than 100 µM throughout.

In the case of `CC1=CC(c2ccccc2)n2c(nc3cc4ccccc4cc32)N1` (configuration not stated), the TGI in the test with 786-0 renal, in the test on A549 NSCLC, with COLO 205 colon, with HCT-116 colon, with HS 578T breast and in the test on NCI-H460 lung was more than 100 µM throughout. For the same compound, the concentration for total growth inhibition (TGI) in the test with SF-295 CNS, in the test on U251 CNS, with UACC-62 melanoma and in the test on UO-31 renal was more than 100 µM throughout.

Consider `COc1ccc(S(=O)(=O)Nc2ccc(-c3csc(N4C(=O)/C(=C/C=C\c5ccccc5)N=C4c4ccccc4)n3)cc2)cc1Cl`, for which the TGI was more than 100 µM with 786-0 renal; more than 100 µM in the test on A549 NSCLC; more than 100 µM with COLO 205 colon; 68.5 µM with HCT-116 colon; 85.5 µM with HS 578T breast; more than 100 µM in the test on NCI-H460 lung. For the same compound, the TGI was more than 100 µM with SF-295 CNS, 76.4 µM in the test with U251 CNS, 49.9 µM in the test with UACC-62 melanoma and 58.6 µM in the test with UO-31 renal.

With `c1csc(-c2ccc(-c3ccc(-c4cccs4)s3)s2)c1`, the TGI in the test with 786-0 renal, with A549 NSCLC, with COLO 205 colon, in the test on HCT-116 colon, in the test with HS 578T breast and with NCI-H460 lung was more than 100 µM in each case. In addition, the TGI in the test on SF-295 CNS, in the test on U251 CNS, in the test on UACC-62 melanoma and in the test with UO-31 renal was more than 100 µM throughout.

For `C=C1C(=O)O[C@H]2C(=O)[C@H](C)CCC[C@@](C)(O)/C=C\C[C@@]3(C)O[C@@H]3C[C@@H]12`, the TGI with 786-0 renal came to 25 µM; with A549 NSCLC it was 38.6 µM; in the test with COLO 205 colon, 30.4 µM; in the test with HCT-116 colon, 20.2 µM; with HS 578T breast, 90.2 µM; in the test on NCI-H460 lung it was 76.1 µM. Further, the TGI in the test on SF-295 CNS came to 17.5 µM; with U251 CNS, 34.4 µM; in the test with UACC-62 melanoma, 37.8 µM; in the test on UO-31 renal it was 27.6 µM.

As to `CSc1nc(Br)nc2c1ncn2C1CC(Oc2ccc(C)cc2)C(COc2ccc(C)cc2)O1` (configuration not stated), the TGI in the test with 786-0 renal was more than 100 µM; in the test on A549 NSCLC, more than 100 µM; in the test on COLO 205 colon it was more than 100 µM; with HCT-116 colon, more than 100 µM; in the test with HS 578T breast, 65.5 µM; with NCI-H460 lung, more than 100 µM. For the same compound, the TGI in the test with SF-295 CNS, in the test on U251 CNS and in the test on UACC-62 melanoma was more than 100 µM throughout.

Turning to `COc1ccc([C@@]23CCC(=O)C[C@@H]2N(C)CC3)cc1OC`, the TGI in the test with 786-0 renal, with A549 NSCLC, in the test on COLO 205 colon, with HS 578T breast, in the test on NCI-H460 lung and in the test on SF-295 CNS was more than 100 µM each time. The TGI in the test on U251 CNS, with UACC-62 melanoma and in the test on UO-31 renal was more than 100 µM each time.

Turning to `O=C(Nc1ccccc1)N1N=C(c2ccccc2)C1c1ccccc1` (configuration not stated), the TGI was 36.6 µM in the test on 786-0 renal; more than 100 µM in the test with A549 NSCLC; more than 100 µM in the test on COLO 205 colon; 44.8 µM with HCT-116 colon; 60.7 µM in the test on HS 578T breast; more than 100 µM in the test on NCI-H460 lung. Moreover, the TGI in the test with SF-295 CNS is 73.8 µM; in the test with U251 CNS, more than 100 µM; in the test with UACC-62 melanoma, 45.7 µM; with UO-31 renal, 69.6 µM.

As to `CCOC(=O)Cc1nc2c(=O)[nH]cnc2n1C1OC(COC(C)=O)C(OC(C)=O)C1OC(C)=O` (configuration not stated), the TGI in the test with 786-0 renal, with A549 NSCLC, in the test with COLO 205 colon, in the test with HCT-116 colon, in the test with HS 578T breast and in the test on NCI-H460 lung was more than 100 µM throughout. Also, the TGI with SF-295 CNS, with U251 CNS, with UACC-62 melanoma and in the test with UO-31 renal was more than 100 µM throughout.
